# Source: patent US4468469A, “Substituted phenylacetic acids and salts as TBP blocking agents in iodothyronine immunoassays” (Miles Laboratories, Inc., priority 1982, dated 1984)
# Key:
# apoglucose oxidase = apoglucose oxidase (Aspergillus niger, UniProt P13006); assay: Activation of apoglucose oxidase by FAD-labeled conjugate (ANS comparison); assay type: biochemical
# Method: For the purposes of comparison, a series of apoenzyme reactivation measurements were set up with different concentrations of the conventionally used blocking agent ANS. The following reagents were prepared:
# 0.105M potassium phosphate buffer, pH 7.0
# 1.1% (w:v) bovine serum albumin
# 5.26 nM FAD-labeled conjugate, supra
# 4 μM apoglucose oxidase, supra
# 50 mM phosphate buffer, pH 7.0
# Apoenzyme activity was determined by placing 50 μl of Reagent B in a cuvette and starting the reaction by addition of 1.90 ml of Reagent A. The assay reactions were incubated for 10 minutes at room temperature and the absorbances at 520 nm recorded.
# [1] = Optical absorption spectra; assay type: physicochemical
# [2] = system: serum proteins (thyroxine binding protein, TBP); assay: Effect of pH on the dissociation of iodothyronine from serum proteins; set-up: species or system human; conditions: over the range pH 6.0-8.0; 2.0 mM
# Method: Radioactive iodine labeled thyroxine (^125 I-thyroxine obtained from Amersham-Searle, Arlington Heights, IL, USA) was equilibrated with 5 ml of normal human serum for 48 hours at 4° C. […] After 5 minutes of incubation at room temperature, a 165 μl aliquot was applied to a Sephadex® column from a Seralute® thyroxine assay kit (Miles Laboratories, Inc., Ames Division, Elkhart, IN, USA), which had been equilibrated with 0.1M sodium phosphate, pH 7.0. The total radioactivity applied to the columns was measured and the undissociated material was washed through the column with 3 ml of buffer. The columns were counted to determine the percentage of thyroxine dissociated from the serum proteins.
# Using the column procedure described in the second study in Example 1, the pH of the 0.1M sodium phosphate was varied and the concentration of the dissociating agent held constant at 2.0 mM. The columns were equilibrated with buffer containing the dissociating agent at the given pH and 165 μl of the serum diluted in buffer at the given pH (as described above) was applied to the column. The total counts were measured and then the columns were washed with buffer at the given pH. The counts remaining on the column represent the percentage of iodothyronine dissociated.
# [3] = system: anti(thyroxine) antiserum / apoglucose oxidase; assay: Apoenzyme reactivation immunoassay system for serum thyroxine; assay type: biochemical; conditions: 2 mM sodium salt of dissociating agent in buffer
# Method: Standard curves for serum thyroxine were generated using a semiautomated assay protocol on the Gilford Clinical Chemistry Analyzer System 203-S (Gilford Instrument Laboratories, Oberline, OH, USA). […] The FAD-thyroxine conjugate (40 nM in 0.1M sodium phosphate, pH 7.0, 0.01% Triton X-100) as a 0.05 ml aliquot was added to the reaction cup and allowed to equilibrate for 30 seconds. The reaction was initiated by addition of 0.10 ml 1.0 μM apoglucose oxidase, 2 mM 4-aminoantipyrine, 12% glycerol, 80 mM sodium phosphate, pH 7.0. The absorbance at 520 nm was recorded after an 8 minute incubation.
# [4] = 50 μM solution in 0.1M phosphate buffer, pH 7.0
# apoglucose oxidase, sequence (P13006 17-605): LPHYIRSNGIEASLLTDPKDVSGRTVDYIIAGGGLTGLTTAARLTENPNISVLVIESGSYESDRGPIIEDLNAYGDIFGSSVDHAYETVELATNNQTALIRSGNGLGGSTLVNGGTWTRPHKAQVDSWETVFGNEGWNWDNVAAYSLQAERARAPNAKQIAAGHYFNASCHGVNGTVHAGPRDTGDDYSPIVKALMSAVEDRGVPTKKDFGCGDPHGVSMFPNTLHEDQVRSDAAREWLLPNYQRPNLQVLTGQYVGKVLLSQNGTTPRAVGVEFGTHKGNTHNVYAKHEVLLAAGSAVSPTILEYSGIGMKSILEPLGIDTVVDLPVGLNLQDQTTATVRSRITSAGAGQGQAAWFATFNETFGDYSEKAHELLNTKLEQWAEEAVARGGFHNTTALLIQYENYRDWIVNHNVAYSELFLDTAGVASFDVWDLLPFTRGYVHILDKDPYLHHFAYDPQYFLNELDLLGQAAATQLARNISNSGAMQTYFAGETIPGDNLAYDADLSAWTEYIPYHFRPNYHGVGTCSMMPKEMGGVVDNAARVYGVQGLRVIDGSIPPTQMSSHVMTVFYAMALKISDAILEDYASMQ
SMILES,"activity at 100 µM (apoglucose oxidase; 10 min, pH 7, 0.1 mM ANS in Reagent A, room temperature, read-out: Percent Apoglucose Oxidase Activity) [%]","activity at 200 µM (apoglucose oxidase; 10 min, pH 7, 0.2 mM ANS in Reagent A, room temperature, read-out: Percent Apoglucose Oxidase Activity) [%]","activity at 500 µM (apoglucose oxidase; 10 min, pH 7, 0.5 mM ANS in Reagent A, room temperature, read-out: Percent Apoglucose Oxidase Activity) [%]","activity at 1000 µM (apoglucose oxidase; 10 min, pH 7, 1.0 mM ANS in Reagent A, room temperature, read-out: Percent Apoglucose Oxidase Activity) [%]",effect on the recombination reaction of apoglucose oxidase and FAD-labeled conjugate (apoglucose oxidase; ANS concentrations above about 1.0 mM),"broad absorption band [1, 4]","wavelength of absorption peak [1, 4]","absorption peak height ([1]; 50 μM solution in 0.1M phosphate buffer, pH 7.0, at about 350 nm)",pH dependence of the dissociation of iodothyronine from serum proteins [2],λmax ([1]; in 0.1M sodium hydroxide) [nanometers],λmin ([1]; in 0.1M sodium hydroxide) [nanometers],"ε min (NaOH), extinction coefficient ([1]; in 0.1M sodium hydroxide, at λmin) [M⁻¹ cm⁻¹]",Absorbance (520 nm) ([3]; Thyroxine Standard 0 μg/L),Absorbance (520 nm) ([3]; Thyroxine Standard 25 μg/L),Absorbance (520 nm) ([3]; Thyroxine Standard 75 μg/L),Absorbance (520 nm) ([3]; Thyroxine Standard 125 μg/L),Absorbance (520 nm) ([3]; Thyroxine Standard 200 μg/L)
"O=S(=O)(O)c1cccc2cccc(Nc3ccccc3)c12 [ANS, 8-anilino-1-naphthalenesulfonic acid]",64,46,13,0,totally inhibit,300-400 nm,about 350 nm,0.5,,,,,,,,,
"O=C(O)Cc1ccccc1Nc1c(Cl)cccc1Cl [Diclofenac, 2-(2,6-dichlorophenylamino)phenylacetic acid]",,,,,,,,,independent of pH,275,248,6400,0.619,0.620,0.647,0.678,0.719
